Assay results as given in DBAASP.
In brackets after ≈: the same amount, converted by molar mass. Blank lines part the entries; values can stand above or below the compound they belong to.

Key:
Assay in all cases: ≥ marks a high value that may be exact or a test limit, other limits are often not marked, values filed in µg/mL are converted to µM
[1] = test system: Escherichia coli ATCC 25726
[2] = test system: Staphylococcus aureus ATCC 25923
[3] = test system: Escherichia coli ATCC 25922
[4] = test system: Candida albicans ATCC 90028
[5] = test system: Staphylococcus aureus NCTC 8325

SMILES: CC[C@H](C)[C@H](NC(=O)[C@H](C)NC(=O)[C@H](CC(C)C)NC(=O)[C@H](CC(N)=O)NC(=O)[C@H](CCCCN)NC(=O)[C@H](CC(C)C)NC(=O)[C@H](CO)NC(=O)[C@H](CC(=O)O)NC(=O)[C@H](CC(C)C)NC(=O)[C@H](CC(C)C)NC(=O)CN)C(=O)N[C@@H](CC(N)=O)C(=O)N[C@@H](C)C(=O)N[C@@H](C)C(=O)N[C@@H](CCCCN)C(=O)NCC(=O)N[C@@H](C)C(=O)NCC(=O)N[C@@H](CCC(N)=O)C(=O)N[C@@H](CO)C(=O)N[C@H](C(=O)N[C@@H](CC(C)C)C(=O)N[C@@H](CC(N)=O)C(=O)N[C@H](C(=O)N[C@@H](CC(C)C)C(=O)N[C@@H](CO)C(=O)N[C@H]1CSSC[C@@H](C(=O)O)NC(=O)[C@H]([C@@H](C)O)NC(=O)[C@H](CCCCN)NC(=O)[C@H](CO)NC(=O)[C@H](CC(C)C)NC(=O)[C@H](CCCCN)NC1=O)[C@@H](C)O)C(C)C [GLLDSLKNLAINAAKGAGQSVLNTLSCKLSKTC]
MIC [1]: ≥ 37.5 µM | MIC [2]: 18.8 µM (≈ 62.5 µg/mL)

SMILES: CC[C@H](C)[C@H](NC(=O)[C@H](C)NC(=O)[C@@H]1CCCN1C(=O)[C@H](CC(C)C)NC(=O)[C@@H](N)Cc1ccccc1)C(=O)N[C@@H](C)C(=O)NCC(=O)N[C@@H](CCSC)C(=O)N[C@@H](C)C(=O)N[C@@H](C)C(=O)N[C@@H](CCCCN)C(=O)N[C@@H](Cc1ccccc1)C(=O)N[C@@H](CC(C)C)C(=O)N1CCC[C@H]1C(=O)N[C@@H](CCCCN)C(=O)N[C@H](C(=O)N[C@@H](Cc1ccccc1)C(=O)N[C@H]1CSSC[C@@H](C(=O)O)NC(=O)[C@H](CCCCN)NC(=O)[C@H](CCCCN)NC(=O)[C@H](CO)NC(=O)[C@H]([C@@H](C)CC)NC(=O)[C@H](C)NC1=O)[C@@H](C)CC [FLPAIAGMAAKFLPKIFCAISKKC]
MIC [3]: 3 µM (≈ 7.7 µg/mL) | MIC [4]: 10 µM (≈ 25.7 µg/mL) | MIC [5]: 1 µM (≈ 2.57 µg/mL)

SMILES: CC[C@H](C)[C@H](N)C(=O)N[C@@H](CC(C)C)C(=O)N1CCC[C@H]1C(=O)N[C@H](C(=O)N[C@@H](CC(C)C)C(=O)NCC(=O)N[C@@H](CC(N)=O)C(=O)N[C@@H](CC(C)C)C(=O)N[C@@H](CC(C)C)C(=O)N[C@@H](CC(N)=O)C(=O)N[C@@H](CO)C(=O)N[C@@H](CC(C)C)C(=O)N[C@@H](CC(C)C)C(N)=O)[C@@H](C)CC [ILPILGNLLNSLL]
MIC [3]: > 100 µM | MIC [4]: ≥ 100 µM | MIC [5]: ≥ 100 µM

Second part, the compound after the results:

MIC [3]: 17 µM (≈ 49.6 µg/mL) | MIC [4]: ≥ 150 µM | MIC [5]: ≥ 70 µM
SMILES: CC[C@H](C)[C@H](NC(=O)CN)C(=O)N[C@@H](CC(C)C)C(=O)N[C@@H](CC(=O)O)C(=O)N[C@H](C(=O)N[C@H](C(=O)N[C@@H](CCCCN)C(=O)N[C@@H](CC(N)=O)C(=O)N[C@@H](C)C(=O)N[C@@H](C)C(=O)N[C@@H](CCCCN)C(=O)N[C@H](C(=O)N[C@H](C(=O)N[C@@H](C)C(=O)N[C@H](C(=O)NCC(=O)N[C@@H](CC(C)C)C(=O)N[C@@H](CC(C)C)C(=O)N[C@@H](CCC(=O)O)C(=O)N[C@@H](CCCCN)C(=O)N[C@H](C(=O)N[C@@H](CCCCN)C(=O)N[C@H]1CSSC[C@@H](C(=O)O)NC(=O)CNC(=O)[C@H]([C@@H](C)O)NC(=O)[C@H](CCSC)NC(=O)[C@H](CCCCN)NC1=O)[C@@H](C)CC)C(C)C)C(C)C)[C@@H](C)O)[C@@H](C)CC)[C@@H](C)O [GILDTIKNAAKTVAVGLLEKIKCKMTGC]

MIC [3]: 20 µM (≈ 53.7 µg/mL) | MIC [5]: ≥ 40 µM
SMILES: CC[C@H](C)[C@H](NC(=O)CNC(=O)[C@H](CCC(N)=O)NC(=O)[C@H](Cc1ccccc1)NC(=O)[C@@H](NC(=O)[C@H](CCCCN)NC(=O)[C@H](CCCCN)NC(=O)[C@H](CC(C)C)NC(=O)[C@H](C)NC(=O)[C@H](CC(N)=O)NC(=O)[C@H](CC(C)C)NC(=O)CN)C(C)C)C(=O)N[C@@H](Cc1cnc[nH]1)C(=O)N[C@@H](CCCCN)C(=O)N[C@@H](C)C(=O)N[C@H](C(=O)N[C@@H](CCCCN)C(=O)N[C@@H](CC(C)C)C(=O)N[C@H](C(=O)N[C@@H](CC(N)=O)C(=O)N[C@@H](CC(N)=O)C(=O)N[C@@H](Cc1cnc[nH]1)C(=O)N[C@H](C(=O)N[C@@H](CCC(N)=O)C(=O)O)C(C)C)[C@@H](C)CC)[C@@H](C)CC [GLNALKKVFQGIHKAIKLINNHVQ]
